Experimental data: the NIST ThermoML archive (doi:10.1016/j.jct.2011.08.019)
“And” between values parts separate entries of the source, which are not always exact repeats. Equal entries are not always repeated. ± gives the expanded uncertainty stated by the source.

Test: molar heat capacity at constant pressure
Conditions: 101.33 kPa, Liquid, Small sample (50 mg) DSC

Row | Structure (SMILES) | molar heat capacity at constant pressure (343.15 K) | molar heat capacity at constant pressure (348.15 K) | molar heat capacity at constant pressure (353.15 K) | molar heat capacity at constant pressure (358.15 K) | molar heat capacity at constant pressure (363.15 K) | molar heat capacity at constant pressure (368.15 K) | molar heat capacity at constant pressure (373.15 K) | molar heat capacity at constant pressure (378.15 K) | molar heat capacity at constant pressure (383.15 K) | molar heat capacity at constant pressure (388.15 K) | molar heat capacity at constant pressure (393.15 K) | molar heat capacity at constant pressure (398.15 K) | molar heat capacity at constant pressure (403.15 K) | molar heat capacity at constant pressure (408.15 K) | molar heat capacity at constant pressure (413.15 K) | molar heat capacity at constant pressure (418.15 K) | molar heat capacity at constant pressure (423.15 K) | molar heat capacity at constant pressure (428.15 K) | molar heat capacity at constant pressure (433.15 K) | molar heat capacity at constant pressure (438.15 K) | further results
1 | CCCC[P+](C)(CCCC)CCCC.COS(=O)(=O)[O-] [tributylmethylphosphonium methyl sulfate] | 668.1 ± 68 J/K/mol and 660.8 ± 67 J/K/mol | 672 ± 68 J/K/mol and 665.4 ± 67 J/K/mol | 676.3 ± 68 J/K/mol and 669.7 ± 68 J/K/mol | 681.2 ± 69 J/K/mol and 674.3 ± 68 J/K/mol | 685.8 ± 69 J/K/mol and 678.9 ± 69 J/K/mol | 690.4 ± 70 J/K/mol and 683.8 ± 69 J/K/mol | 695.3 ± 70 J/K/mol and 687.4 ± 69 J/K/mol | 698.3 ± 70 J/K/mol and 692.4 ± 70 J/K/mol | 703.2 ± 71 J/K/mol and 697.3 ± 70 J/K/mol | 707.2 ± 71 J/K/mol and 702.2 ± 71 J/K/mol | 711.1 ± 72 J/K/mol and 705.5 ± 71 J/K/mol | 714.4 ± 72 J/K/mol and 711.1 ± 72 J/K/mol | 715 ± 72 J/K/mol and 715.4 ± 72 J/K/mol | 720 ± 73 J/K/mol and 718.6 ± 73 J/K/mol | 726.2 ± 73 J/K/mol and 721.3 ± 73 J/K/mol | 729.2 ± 74 J/K/mol and 723.9 ± 73 J/K/mol | 733.1 ± 74 J/K/mol and 728.8 ± 74 J/K/mol | 736.4 ± 74 J/K/mol and 732.4 ± 74 J/K/mol | 738.4 ± 75 J/K/mol and 737.4 ± 74 J/K/mol | 743.3 ± 75 J/K/mol and 741.6 ± 75 J/K/mol | molar heat capacity at constant pressure (443.15 K): 745.9 ± 75 J/K/mol and 744.6 ± 75 J/K/mol; molar heat capacity at constant pressure (448.15 K): 748.9 ± 76 J/K/mol and 747.6 ± 76 J/K/mol; molar heat capacity at constant pressure (453.15 K): 751.8 ± 76 J/K/mol and 750.8 ± 76 J/K/mol; molar heat capacity at constant pressure (458.15 K): 754.4 ± 76 J/K/mol and 754.1 ± 76 J/K/mol; molar heat capacity at constant pressure (463.15 K): 757.4 ± 76 J/K/mol and 756.1 ± 76 J/K/mol
2 | CCn1cc[n+](C)c1.O=S(=O)([N-]S(=O)(=O)C(F)(F)F)C(F)(F)F | 531 ± 54 J/K/mol and 533.4 ± 54 J/K/mol and 533.7 ± 54 J/K/mol | 531.8 ± 54 J/K/mol and 534.1 ± 54 J/K/mol and 534.9 ± 54 J/K/mol | 533 ± 54 J/K/mol and 536.1 ± 54 J/K/mol | 537.3 ± 54 J/K/mol and 537.7 ± 54 J/K/mol and 534.9 ± 54 J/K/mol | 536.1 ± 54 J/K/mol and 538.4 ± 54 J/K/mol and 539.2 ± 54 J/K/mol | 537.7 ± 54 J/K/mol and 539.6 ± 54 J/K/mol and 540.4 ± 55 J/K/mol | 538.8 ± 54 J/K/mol and 541.6 ± 55 J/K/mol and 542.4 ± 55 J/K/mol | 540.8 ± 55 J/K/mol and 542.7 ± 55 J/K/mol and 543.5 ± 55 J/K/mol | 541.6 ± 55 J/K/mol and 543.9 ± 55 J/K/mol | 542.7 ± 55 J/K/mol and 545.1 ± 55 J/K/mol and 545.5 ± 55 J/K/mol | 544.7 ± 55 J/K/mol and 546.7 ± 55 J/K/mol | 545.5 ± 55 J/K/mol and 547.4 ± 55 J/K/mol and 548.2 ± 55 J/K/mol | 547.4 ± 55 J/K/mol and 549.4 ± 56 J/K/mol | 548.6 ± 55 J/K/mol and 550.2 ± 56 J/K/mol and 549.8 ± 56 J/K/mol | 549.4 ± 56 J/K/mol and 552.1 ± 56 J/K/mol and 550.2 ± 56 J/K/mol | 550.6 ± 56 J/K/mol and 552.5 ± 56 J/K/mol and 551.7 ± 56 J/K/mol | 551.4 ± 56 J/K/mol and 552.9 ± 56 J/K/mol and 552.5 ± 56 J/K/mol | 552.1 ± 56 J/K/mol and 553.7 ± 56 J/K/mol and 552.9 ± 56 J/K/mol | 552.5 ± 56 J/K/mol and 554.9 ± 56 J/K/mol and 555.3 ± 56 J/K/mol | 554.1 ± 56 J/K/mol and 556.1 ± 56 J/K/mol and 555.7 ± 56 J/K/mol | molar heat capacity at constant pressure (443.15 K): 554.9 ± 56 J/K/mol and 556.4 ± 56 J/K/mol and 556.1 ± 56 J/K/mol; molar heat capacity at constant pressure (448.15 K): 555.7 ± 56 J/K/mol and 557.2 ± 56 J/K/mol; molar heat capacity at constant pressure (453.15 K): 556.4 ± 56 J/K/mol and 558.4 ± 56 J/K/mol and 556.8 ± 56 J/K/mol; molar heat capacity at constant pressure (458.15 K): 557.6 ± 56 J/K/mol and 558.4 ± 56 J/K/mol and 558 ± 56 J/K/mol; molar heat capacity at constant pressure (463.15 K): 557.6 ± 56 J/K/mol and 558.8 ± 56 J/K/mol
3 | CCCCCCCCCCCCCC[P+](CCCCCC)(CCCCCC)CCCCCC.O=S(=O)([N-]S(=O)(=O)C(F)(F)F)C(F)(F)F | 1381.3 ± 140 J/K/mol [middle of 4 runs] | 1390.5 ± 140 J/K/mol [middle of 4 runs] | 1400.4 ± 140 J/K/mol [middle of 4 runs] | 1410.4 ± 140 J/K/mol and 1399.7 ± 140 J/K/mol and 1395.1 ± 140 J/K/mol | 1419.5 ± 140 J/K/mol [middle of 4 runs] | 1428.7 ± 140 J/K/mol and 1420.3 ± 140 J/K/mol and 1426.4 ± 140 J/K/mol | 1439.4 ± 150 J/K/mol [middle of 4 runs] | 1445.5 ± 150 J/K/mol [middle of 4 runs] | 1454.7 ± 150 J/K/mol [middle of 4 runs] | 1462.3 ± 150 J/K/mol [middle of 4 runs] | 1470 ± 150 J/K/mol [middle of 4 runs] | 1479.9 ± 150 J/K/mol [middle of 4 runs] | 1487.5 ± 150 J/K/mol and 1478.4 ± 150 J/K/mol and 1469.2 ± 150 J/K/mol | 1494.4 ± 150 J/K/mol [middle of 4 runs] | 1501.3 ± 150 J/K/mol [middle of 4 runs] | 1508.9 ± 150 J/K/mol [middle of 4 runs] | 1516.6 ± 150 J/K/mol [middle of 4 runs] | 1521.9 ± 150 J/K/mol [middle of 4 runs] | 1533.4 ± 150 J/K/mol and 1519.6 ± 150 J/K/mol and 1509.7 ± 150 J/K/mol | 1541 ± 160 J/K/mol [middle of 4 runs] | molar heat capacity at constant pressure (328.15 K): 1373.7 ± 140 J/K/mol and 1363 ± 140 J/K/mol and 1359.9 ± 140 J/K/mol; molar heat capacity at constant pressure (333.15 K): 1370.6 ± 140 J/K/mol [middle of 4 runs]; molar heat capacity at constant pressure (338.15 K): 1375.2 ± 140 J/K/mol [middle of 4 runs]; molar heat capacity at constant pressure (443.15 K): 1544.8 ± 160 J/K/mol [middle of 4 runs]; molar heat capacity at constant pressure (448.15 K): 1548.6 ± 160 J/K/mol [middle of 4 runs]; molar heat capacity at constant pressure (453.15 K): 1557.8 ± 160 J/K/mol [middle of 4 runs]; molar heat capacity at constant pressure (458.15 K): 1561.6 ± 160 J/K/mol [middle of 4 runs]; molar heat capacity at constant pressure (463.15 K): 1567.7 ± 160 J/K/mol [middle of 4 runs]
